Key:
[1] = system: SW620 colon adenocarcinoma cells (wild-type B-RAF); experiment: SW620 cell growth inhibition (ATPlite); assay type: cell-based; details: Homo sapiens, SW-620, 72 h; SW620, 3 days incubation
How it was run: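 ATPlite luminescence, taken as a cell-number measure, gave IC50 values after a 3-day 37° C, 5% CO2 incubation. Compounds were tested as 8-point threefold titrations, highest final concentration 10 μM, added to cells seeded the day before.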

CYP1A2 = target: T1, CYP1A2 (Homo sapiens, UniProt P05177); experiment: CYP1A2 inhibition (fluorescent substrate); assay type: in vitro ADME; details: CYP1A2, CEC substrate; read-out: Cyp IC50 1A2
T1 sequence (P05177 1-516): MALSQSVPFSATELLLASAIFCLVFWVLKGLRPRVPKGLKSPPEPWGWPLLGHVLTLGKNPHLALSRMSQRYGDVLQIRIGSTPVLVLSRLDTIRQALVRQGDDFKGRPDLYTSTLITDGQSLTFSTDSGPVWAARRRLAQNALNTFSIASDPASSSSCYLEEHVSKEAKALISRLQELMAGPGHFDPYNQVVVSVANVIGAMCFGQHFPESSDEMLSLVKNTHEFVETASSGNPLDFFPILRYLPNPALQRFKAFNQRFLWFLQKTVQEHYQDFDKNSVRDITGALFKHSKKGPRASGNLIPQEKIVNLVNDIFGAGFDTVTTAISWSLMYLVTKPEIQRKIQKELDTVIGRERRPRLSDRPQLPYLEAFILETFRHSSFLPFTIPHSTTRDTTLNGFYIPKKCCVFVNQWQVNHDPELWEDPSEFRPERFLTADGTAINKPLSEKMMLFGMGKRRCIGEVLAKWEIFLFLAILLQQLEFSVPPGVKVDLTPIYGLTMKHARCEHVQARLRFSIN
Description: (§1) CYP (Cytochrome P450) enzymes are the major drug metabolizing enzymes present in the liver. The inhibition of CYP enzyme activity (IC50) for each of CYP1A2, CYP2C19, CYP2C9, CYP2D6, CYP3A4(BFC) and CYP3A4(BQ) is determined for compounds, where inhibition of metabolism of a known substrate leads to a decrease in the fluorescence of the metabolized product. The fluorescence of the product is monitored as a function of compound concentration.
(§2) Compounds are dissolved in dimethyl sulfoxide to a concentration of 100 mM. These are diluted 1 μL into 82 μL of acetonitrile. […] These are then serially diluted 1:1 (160 μL to 160 μL co-factor mix) for a total of 10 points. A 10 μL aliquot of this final mixture is dispensed into 384 well assay plates and incubated for 10 minutes at 37° C. […] Assay plates are incubated at 37° C. […] The signal versus compound concentration is used to determine the IC50. The enzymes and substrates for this assay are obtained from BD Biosciences.

CYP2C19 = CYP2C19 (Homo sapiens, UniProt P33261); experiment: CYP2C19 inhibition (fluorescent substrate); assay type: in vitro ADME; details: CYP2C19, CEC substrate; read-out: Cyp IC50 2C19
Description: as §1, §2

CYP2C9 = CYP2C9 (Homo sapiens, UniProt P11712); experiment: CYP2C9 inhibition (fluorescent substrate); assay type: in vitro ADME; details: CYP2C9, MFC substrate; read-out: Cyp IC50 2C9
Description: as §1, §2

CYP2D6 = CYP2D6 (Homo sapiens, UniProt P10635); experiment: CYP2D6 inhibition (fluorescent substrate); assay type: in vitro ADME; details: CYP2D6, AMMC substrate; read-out: Cyp IC50 2D6
Description: as §1, §2

Sequence of CYP2C9 (P11712 whole entry): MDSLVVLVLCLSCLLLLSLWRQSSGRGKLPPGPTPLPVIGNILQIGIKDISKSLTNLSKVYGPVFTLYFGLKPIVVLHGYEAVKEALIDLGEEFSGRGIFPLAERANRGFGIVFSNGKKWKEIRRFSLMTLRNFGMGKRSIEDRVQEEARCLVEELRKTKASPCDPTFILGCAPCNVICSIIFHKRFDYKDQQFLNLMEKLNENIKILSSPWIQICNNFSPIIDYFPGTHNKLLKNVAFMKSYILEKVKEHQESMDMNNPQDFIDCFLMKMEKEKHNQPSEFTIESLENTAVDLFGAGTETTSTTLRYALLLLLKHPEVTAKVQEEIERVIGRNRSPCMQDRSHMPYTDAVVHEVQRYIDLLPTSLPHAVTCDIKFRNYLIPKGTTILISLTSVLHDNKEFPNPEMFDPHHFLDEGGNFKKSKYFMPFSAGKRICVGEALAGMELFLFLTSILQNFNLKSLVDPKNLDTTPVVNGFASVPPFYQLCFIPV
Sequence of CYP2D6 (P10635 whole entry): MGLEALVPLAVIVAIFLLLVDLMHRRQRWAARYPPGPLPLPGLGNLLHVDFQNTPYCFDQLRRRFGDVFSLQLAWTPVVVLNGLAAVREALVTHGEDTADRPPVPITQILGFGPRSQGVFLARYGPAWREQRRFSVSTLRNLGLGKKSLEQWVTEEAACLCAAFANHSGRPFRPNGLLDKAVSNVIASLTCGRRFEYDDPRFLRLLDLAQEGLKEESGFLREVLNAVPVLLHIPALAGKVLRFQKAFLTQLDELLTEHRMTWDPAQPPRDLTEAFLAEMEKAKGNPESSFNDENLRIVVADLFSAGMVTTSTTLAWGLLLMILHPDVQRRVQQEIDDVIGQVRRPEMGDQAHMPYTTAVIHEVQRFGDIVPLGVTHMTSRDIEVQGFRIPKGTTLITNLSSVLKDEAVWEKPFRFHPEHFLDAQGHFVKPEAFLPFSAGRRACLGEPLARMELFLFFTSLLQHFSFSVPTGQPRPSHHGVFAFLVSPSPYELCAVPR
Sequence of CYP2C19 (P33261 whole entry): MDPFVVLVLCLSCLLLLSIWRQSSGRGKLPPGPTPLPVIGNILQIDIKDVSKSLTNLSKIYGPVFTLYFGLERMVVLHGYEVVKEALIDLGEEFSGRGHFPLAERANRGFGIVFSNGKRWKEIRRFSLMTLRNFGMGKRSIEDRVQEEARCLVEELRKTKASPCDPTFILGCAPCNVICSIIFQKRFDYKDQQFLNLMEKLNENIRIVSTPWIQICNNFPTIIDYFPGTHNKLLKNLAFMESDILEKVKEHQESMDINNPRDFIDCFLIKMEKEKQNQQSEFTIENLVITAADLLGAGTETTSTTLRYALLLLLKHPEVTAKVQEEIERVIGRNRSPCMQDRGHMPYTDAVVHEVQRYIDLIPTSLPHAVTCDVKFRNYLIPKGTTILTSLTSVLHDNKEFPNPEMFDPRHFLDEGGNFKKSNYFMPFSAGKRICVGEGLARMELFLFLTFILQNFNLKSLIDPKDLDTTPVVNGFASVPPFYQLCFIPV

| IC50 [1] [µM] | IC50 (CYP1A2) [µM] | IC50 (CYP2C19) [µM] | IC50 (CYP2C9) [µM] | IC50 (CYP2D6) [µM] | Structure (SMILES) |
| --- | --- | --- | --- | --- | --- |
| > 10 | > 10 | > 10 | > 10 | > 10 | N#Cc1ccnc2[nH]cc(C(=O)c3c(F)ccc(NS(=O)(=O)c4cc(F)ccc4F)c3F)c12 [P-2036, N-[3-(4-Cyano-1H-pyrrolo[2,3-b]pyridine-3-carbonyl)-2,4-difluoro-phenyl]-2,5-difluoro-benzenesulfonamide] |
| < 10 | > 10 | 5 to 10 | 5 to 10 | > 10 | CCCS(=O)(=O)Nc1ccc(F)c(C(=O)c2c[nH]c3ncc(-c4ccc(S(=O)(=O)NC)cc4)cc23)c1F [P-2167, 4-{3-[2,6-Difluoro-3-(propane-1-sulfonylamino)-benzoyl]-1H-pyrrolo[2,3-b]pyridin-5-yl}-N-methyl-benzenesulfonamide] |
| > 10 | > 10 | 5 to 10 | > 10 | > 10 | CCCS(=O)(=O)Nc1ccc(F)c(C(=O)c2c[nH]c3ncc(-c4ccc(F)nc4)cc23)c1F [P-2155, Propane-1-sulfonic acid {2,4-difluoro-3-[5-(6-fluoro-pyridin-3-yl)-1H-pyrrolo[2,3-b]pyridine-3-carbonyl]-phenyl}-amide] |
| > 10 | > 10 | 5 to 10 | > 10 | > 10 | CCCS(=O)(=O)Nc1ccc(F)c(C(=O)c2c[nH]c3ncc(-c4cnc(C)nc4)cc23)c1F [P-2211, Propane-1-sulfonic acid {2,4-difluoro-3-[5-(2-methyl-pyrimidin-5-yl)-1H-pyrrolo[2,3-b]pyridine-3-carbonyl]-phenyl}-amide] |
| > 10 | > 10 | > 10 | > 10 | > 10 | COc1ncc(-c2cnc3[nH]cc(C(=O)c4c(F)ccc(NS(=O)(=O)c5cccc(F)c5)c4F)c3c2)cn1 [P-2045, N-{2,4-Difluoro-3-[5-(2-methoxy-pyrimidin-5-yl)-1H-pyrrolo[2,3-b]pyridine-3-carbonyl]-phenyl}-3-fluoro-benzenesulfonamide] |
| > 10 | > 10 | > 10 | > 10 | > 10 | N#Cc1cnc2[nH]cc(C(=O)c3cccc(NS(=O)(=O)c4c(F)cccc4F)c3F)c2c1 [P-2054, N-[3-(5-Cyano-1H-pyrrolo[2,3-b]pyridine-3-carbonyl)-2-fluoro-phenyl]-2,6-difluoro-benzenesulfonamide] |
| > 10 | > 10 | > 10 | > 10 | > 10 | O=C(c1c(F)ccc(NS(=O)(=O)c2ccccc2F)c1F)c1c[nH]c2nccc(Cl)c12 [P-2017, N-[3-(4-Chloro-1H-pyrrolo[2,3-b]pyridine-3-carbonyl)-2,4-difluoro-phenyl]-2-fluoro-benzenesulfonamide] |
| < 5 | < 5 | 5 to 10 | 5 to 10 | > 10 | CCCS(=O)(=O)Nc1ccc(F)c(C(=O)c2c[nH]c3ncc(-c4ccc(N5CCCC5)nc4)cc23)c1F [P-2231, Propane-1-sulfonic acid {2,4-difluoro-3-[5-(6-pyrrolidin-1-yl-pyridin-3-yl)-1H-pyrrolo[2,3-b]pyridine-3-carbonyl]-phenyl}-amide] |
| > 10 | > 10 | > 10 | > 10 | > 10 | O=C(c1c(F)ccc(NS(=O)(=O)c2c(F)cccc2F)c1F)c1c[nH]c2nccc(Cl)c12 [P-2033, N-[3-(4-Chloro-1H-pyrrolo[2,3-b]pyridine-3-carbonyl)-2,4-difluoro-phenyl]-2,6-difluoro-benzenesulfonamide] |
| > 10 | > 10 | > 10 | > 10 | > 10 | N#Cc1ccnc2[nH]cc(C(=O)c3c(F)ccc(NS(=O)(=O)c4cccc(F)c4)c3F)c12 [P-2039, N-[3-(4-Cyano-1H-pyrrolo[2,3-b]pyridine-3-carbonyl)-2,4-difluoro-phenyl]-3-fluoro-benzenesulfonamide] |
| > 10 | > 10 | > 10 | > 10 | > 10 | O=C(c1c(F)ccc(NS(=O)(=O)c2cc(F)ccc2F)c1F)c1c[nH]c2nccc(Cl)c12 [P-2018, N-[3-(4-Chloro-1H-pyrrolo[2,3-b]pyridine-3-carbonyl)-2,4-difluoro-phenyl]-2,5-difluoro-benzenesulfonamide] |
| > 10 | > 10 | > 10 | 5 to 10 | > 10 | CCCS(=O)(=O)Nc1ccc(F)c(C(=O)c2c[nH]c3ncc(-c4ccnc(F)c4)cc23)c1F [P-2192, Propane-1-sulfonic acid {2,4-difluoro-3-[5-(2-fluoro-pyridin-4-yl)-1H-pyrrolo[2,3-b]pyridine-3-carbonyl]-phenyl}-amide] |
| > 10 | > 10 | > 10 | < 5 | > 10 | CCCS(=O)(=O)Nc1ccc(F)c(C(=O)c2c[nH]c3ncc(-c4ccc(CCCOC)nc4)cc23)c1F [P-2226, Propane-1-sulfonic acid (2,4-difluoro-3-{5-[6-(3-methoxy-propyl)-pyridin-3-yl]-1H-pyrrolo[2,3-b]pyridine-3-carbonyl}-phenyl)-amide] |
| > 10 | > 10 | > 10 | 5 to 10 | > 10 | COc1ccnc2[nH]cc(C(=O)c3c(F)ccc(NS(=O)(=O)c4cc(F)ccc4F)c3F)c12 [P-2022, N-[2,4-Difluoro-3-(4-methoxy-1H-pyrrolo[2,3-b]pyridine-3-carbonyl)-phenyl]-2,5-difluoro-benzenesulfonamide] |
| < 10 | > 10 | 5 to 10 | < 5 | > 10 | CCCS(=O)(=O)Nc1ccc(F)c(C(=O)c2c[nH]c3ncc(-c4cnn(Cc5ccccc5)c4)cc23)c1F [P-2190, Propane-1-sulfonic acid {3-[5-(1-benzyl-1H-pyrazol-4-yl)-1H-pyrrolo[2,3-b]pyridine-3-carbonyl]-2,4-difluoro-phenyl}-amide] |
| > 10 | > 10 | > 10 | > 10 | > 10 | CCCS(=O)(=O)Nc1ccc(F)c(C(=O)c2c[nH]c3ncc(-c4cccc(S(C)(=O)=O)c4)cc23)c1F [P-2228, Propane-1-sulfonic acid {2,4-difluoro-3-[5-(3-methanesulfonyl-phenyl)-1H-pyrrolo[2,3-b]pyridine-3-carbonyl]-phenyl}-amide] |
| > 10 | > 10 | > 10 | > 10 | > 10 | Cc1cnc2[nH]cc(C(=O)c3c(F)ccc(NS(=O)(=O)c4ccccc4F)c3F)c2c1 [P-2014, N-[2,4-Difluoro-3-(5-methyl-1H-pyrrolo[2,3-b]pyridine-3-carbonyl)-phenyl]-2-fluoro-benzenesulfonamide] |
| > 10 | > 10 | > 10 | > 10 | > 10 | CCCS(=O)(=O)Nc1ccc(F)c(C(=O)c2c[nH]c3ncc(-c4ccc(SC)nc4)cc23)c1F [P-2187, Propane-1-sulfonic acid {2,4-difluoro-3-[5-(6-methylsulfanyl-pyridin-3-yl)-1H-pyrrolo[2,3-b]pyridine-3-carbonyl]-phenyl}-amide] |

Reference: patent US8198273B2, “Compounds and methods for kinase modulation, and indications therefor” (Plexxikon Inc., priority 2009, dated 2012)
